Data as given in US20130204033A1, “ANTIPROLIFERATIVE COMPOUNDS, CONJUGATES THEREOF, METHODS THEREFOR, AND USES THEREOF” (Medarex, Inc., priority 2009, published 2013).
Like-named read-outs stand apart in the source and are kept apart here.

Tests used:
Type in all cases: cell-based, human
LNCaP = experiment: 3H thymidine proliferation assay, LNCaP
Description: (§1) This example generally describes the procedures used to assay the antiproliferative activity of compounds of this invention or their conjugates. Human tumor cell lines were obtained from the American Type Culture Collection (ATCC), P.O. Box 1549, Manassas, Va. 20108, USA, and cultured according to instruction from the ATCC. Cells were seeded at 1.0×10^3 or 1.0×10^4 cells/well in 96-well plates for 3 h for ATP assays or ^3H thymidine assays, respectively. 1:3 serial dilutions of free (unconjugated) compounds or their conjugates were added to the wells. Plates were allowed to incubate for 24 to 72 h. The ^3H thymidine plates were pulsed with 1.0 μCi of ^3H-thymidine per well for the last 24 hours of the total incubation period, harvested, and read on a Top Count Scintillation Counter (Packard Instruments, Meriden, Conn.). ATP levels in the ATP plates were measured using the […]-GLO® Luminescent Cell Viability kit following the manufacturer's manual and read on a GLOMAX® 20/20 luminometer (both from Promega, Madison, Wis., USA). The EC50 values—the concentration at which an agent inhibits or reduces cell proliferation by 50% —were determined using PRISM™ software, version 4.0 (GraphPad Software, La Jolla, Calif., USA).
(§2) Using the ^3H thymidine or the ATP luminescence assay, or both, the activities of compounds of this invention were assayed against the following cancer cell lines: HCT-15 (colorectal cancer, multi-drug resistant (MDR)); Hep3B (liver cancer); LNCaP (prostate cancer, androgen receptor positive (AR^+)); MDA-MB-231 (breast cancer, estrogen receptor, progesterone receptor, and Her2 negative (triple negative)); A2058 (melanoma); U-87 MG (glioblastoma); NCI-H460 (NSCLC); A549 (NSCLC); HPAC (pancreatic cancer, primary); PC3 (prostate cancer, AR); BT474 (breast cancer, Her2 highly positive (Her2hi)); SKOV3 (ovarian cancer, Her2hi); 786-O (renal cancer); UO-31 (renal cancer, MDR); NCI-H740 (SCLC); DMS53 (SCLC); SK-BR3 (breast cancer, Her2hi); ZR-75 (breast cancer, estrogen receptor positive); OVCAR3 (ovarian cancer); HL-60 (APL); OVCAR8/Adr (ovarian cancer, MDR); CEM-Cl (ALL); Nomo-1 (AML); RPMI-8226 (MM)); Raji (lymphoma); SW-480 (colorectal cancer, metastatic); SW-620 (colorectal cancer); and H226 (lung cancer). (Not all compounds were assayed against all cell lines.)
(§3) Table 2 provides the data for proliferation assays using the ^3H thymidine method, with an incubation period of 72 h.

Raji [1] = experiment: 3H thymidine proliferation assay, Raji
Description: as §1, §2, §3

DMS53 = experiment: ATP luminescence proliferation assay, DMS53
Description: as §1, §2
(§4) Table 3 provides the data for the ATP luminescence proliferation assays, with an incubation period of 48, 72, or 96 h, as noted.

SK-BR3 [2] = experiment: ATP luminescence proliferation assay, SK-BR3
Description: as §1, §2, §4

BT474 = experiment: 3H thymidine proliferation assay, BT474
Description: as §1, §2, §3

RPMI-8226 = experiment: 3H thymidine proliferation assay, RPMI-8226
Description: as §1, §2, §3

UO-31 = experiment: 3H thymidine proliferation assay, UO-31
Description: as §1, §2, §3

HCT-15 = experiment: ATP luminescence proliferation assay, HCT-15
Description: as §1, §2, §4

786-O = experiment: 3H thymidine proliferation assay, 786-O
Description: as §1, §2, §3

OVCAR3 = experiment: 3H thymidine proliferation assay, OVCAR3
Description: as §1, §2, §3

ZR-75 = experiment: ATP luminescence proliferation assay, ZR-75
Description: as §1, §2, §4

HPAC [3] = experiment: ATP luminescence proliferation assay, HPAC
Description: as §1, §2, §4

U-87 MG [4] = experiment: ATP luminescence proliferation assay, U-87 MG
Description: as §1, §2, §4

Raji [5] = experiment: ATP luminescence proliferation assay, Raji
Description: as §1, §2, §4

SK-BR3 [6] = experiment: 3H thymidine proliferation assay, SK-BR3; conditions: 3H thymidine method, 72 h incubation
Description: as §1, §2, §3

MDA-MB-231 = experiment: ATP luminescence proliferation assay, MDA-MB-231; conditions: Homo sapiens, MDA-MB-231, 72 h, read-out: EC50 MDA-MB-231 (72 h), ATP luminescence, MDA-MB-231, 72 h incubation
Description: as §1, §2, §4

HPAC [7] = experiment: 3H thymidine proliferation assay, HPAC
Description: as §1, §2, §3

U-87 MG [8] = experiment: 3H thymidine proliferation assay, U-87 MG
Description: as §1, §2, §3

A2058 = experiment: 3H thymidine proliferation assay, A2058; conditions: 3H thymidine method, 72 h incubation
Description: as §1, §2, §3

HL-60 = experiment: 3H thymidine proliferation assay, HL-60
Description: as §1, §2, §3

SMILES: CC[C@H](C)[C@H](NC(=O)[C@H]1CCCCN1C)C(=O)N(C)[C@H](C[C@@H](OC)c1nc(C(=O)N[C@@H](Cc2ccccc2)C(=O)N[C@@H](C)C(=O)OC)cs1)C(C)C [Compound 24]
- EC50 (LNCaP; Homo sapiens, LNCaP, read-out: EC50, LNCaP, 3H thymidine method, 72 h incubation): 0.076 µM
- EC50 (Raji [1]; Homo sapiens, Raji, read-out: EC50, Raji, 3H thymidine method, 72 h incubation): 0.011 µM
- EC50 (DMS53; Homo sapiens, DMS-53, 72 h, read-out: EC50 DMS53 (72 h), ATP luminescence, DMS53, 72 h incubation): > 0.1 µM
- EC50 (SK-BR3 [2]; Homo sapiens, SK-BR-3, 48 h, read-out: EC50 SK-BR3 (48 h), ATP luminescence, SK-BR3, 48 h incubation): 0.0089 µM
- EC50 (BT474; Homo sapiens, BT-474, read-out: EC50, BT474, 3H thymidine method, 72 h incubation): > 0.1 µM
- EC50 (RPMI-8226; Homo sapiens, RPMI-8226, read-out: EC50, RPMI-8226, 3H thymidine method, 72 h incubation): 0.017 µM
- EC50 (UO-31; Homo sapiens, UO-31, read-out: EC50, UO-31, 3H thymidine method, 72 h incubation): > 0.1 µM
- EC50 (HCT-15; Homo sapiens, HCT-15, 72 h, read-out: EC50 HCT-15 (72 h), ATP luminescence, HCT-15, 72 h incubation): 0.188 µM
- EC50 (786-O; Homo sapiens, 786-0, read-out: EC50, 786-O, 3H thymidine method, 72 h incubation): > 0.1 µM
- EC50 (OVCAR3; Homo sapiens, OVCAR-3, read-out: EC50, OVCAR3, 3H thymidine method, 72 h incubation): 0.09 µM
- EC50 (ZR-75; Homo sapiens, ZR75, 48 h, read-out: EC50 ZR-75 (48 h), ATP luminescence, ZR-75, 48 h incubation): 0.0084 µM
- EC50 (HPAC [3]; Homo sapiens, 72 h, read-out: EC50 HPAC (72 h), ATP luminescence, HPAC, 72 h incubation): 0.0011 µM
- EC50 (U-87 MG [4]; Homo sapiens, 72 h, read-out: EC50 U-87 MG (72 h), ATP luminescence, U-87 MG, 72 h incubation): 0.018 µM
- EC50 (Raji [5]; Homo sapiens, 72 h, read-out: EC50 Raji (72 h), ATP luminescence, Raji, 72 h incubation): 0.0079 µM
- EC50 (SK-BR3 [6]; Homo sapiens, SK-BR-3): > 0.1 µM
- EC50 (MDA-MB-231): 0.013 µM
- EC50 (HPAC [7]; Homo sapiens, HPAC, read-out: EC50, HPAC, 3H thymidine method, 72 h incubation): > 0.1 µM
- EC50 (U-87 MG [8]; Homo sapiens, U-87 MG, read-out: EC50, U-87 MG, 3H thymidine method, 72 h incubation): 0.018 µM
- EC50 (A2058; Homo sapiens, A2058): 0.00012 µM
- EC50 (HL-60; Homo sapiens, HL-60, read-out: EC50, HL-60, 3H thymidine method, 72 h incubation): 0.0069 µM

SMILES: CC[C@H](C)[C@H](NC(=O)[C@H]1CCCCN1C)C(=O)N(C)[C@H](C[C@@H](OC)c1nc(C(=O)N[C@@H](Cc2ccc(N)cc2)CC(C)C(=O)O)cs1)C(C)C (stereo partly drawn) [Compound 51]
- EC50 (LNCaP; 3H thymidine method, 72 h incubation, read-out: EC50, LNCaP): 0.041 µM
- EC50 (Raji [1]; 3H thymidine method, 72 h incubation, read-out: EC50, Raji): 0.0015 µM
- EC50 (DMS53; ATP luminescence, DMS53, 72 h incubation, read-out: EC50 DMS53 (72 h)): 0.046 µM
- EC50 (SK-BR3 [2]; ATP luminescence, SK-BR3, 48 h incubation, read-out: EC50 SK-BR3 (48 h)): 0.013 µM
- EC50 (BT474; 3H thymidine method, 72 h incubation, read-out: EC50, BT474): 0.03 µM
- EC50 (RPMI-8226; 3H thymidine method, 72 h incubation, read-out: EC50, RPMI-8226): 0.0022 µM
- EC50 (UO-31; 3H thymidine method, 72 h incubation, read-out: EC50, UO-31): 0.035 µM
- EC50 (HCT-15; ATP luminescence, HCT-15, 72 h incubation, read-out: EC50 HCT-15 (72 h)): 0.093 µM
- EC50 (786-O; 3H thymidine method, 72 h incubation, read-out: EC50, 786-O): 0.01 µM
- EC50 (OVCAR3; 3H thymidine method, 72 h incubation, read-out: EC50, OVCAR3): 0.0025 µM
- EC50 (ZR-75; ATP luminescence, ZR-75, 48 h incubation, read-out: EC50 ZR-75 (48 h)): 0.019 µM
- EC50 (HPAC [3]; ATP luminescence, 72 h incubation, read-out: EC50 HPAC (72 h)): 0.0045 µM
- EC50 (U-87 MG [4]; ATP luminescence, 72 h incubation, read-out: EC50 U-87 MG (72 h)): 0.0076 µM
- EC50 (Raji [5]; ATP luminescence, 72 h incubation, read-out: EC50 Raji (72 h)): 0.005 µM
- EC50 (SK-BR3 [6]): > 0.1 µM
- EC50 (HPAC [7]; 3H thymidine method, 72 h incubation, read-out: EC50, HPAC): 0.0064 µM
- EC50 (U-87 MG [8]; 3H thymidine method, 72 h incubation, read-out: EC50, U-87 MG): 0.00075 µM
- EC50 (A2058): 0.0004 µM
- EC50 (HL-60; 3H thymidine method, 72 h incubation, read-out: EC50, HL-60): 0.0042 µM
